Test results published in patent US12454529B2, “Piperazine cyclic ureas” (SIRONAX LTD., priority 2020, dated 2025).
Like-named read-outs stand apart in the source and are kept apart here.

System: HT-29 cells
Assay: HT-29 cell necrosis/necroptosis inhibition (TNF-α + SMAC mimetic + zVAD-FMK; CellTiter-Glo cell viability)
Format: cell-based
Settings: Homo sapiens, read-out: EC50 (Cell activity; Necrosis/Necroptosis Inhibitory Activity, Compounds 1-142)
How it was run: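 Necroptosis was driven by TNF-α 10 ng/ml plus SMAC mimetic 6 μM and zVAD-FMK 10 μM in serum-free medium, with compounds as a 10-point threefold titration. After 20 h at 37 °C, ATP-based luminescence was read; EC50 values are geometric means of duplicate curves.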

[1] = HT-29 cells, TNF-α 10 ng/ml + SMAC mimetic 6 μM + zVAD-FMK 10 μM, 20 hours, geometric mean, 10 points in duplicate

| Structure (SMILES) | EC50 [1] [nM] | EC50 (HT-29, 20 h) [nM] |
| --- | --- | --- |
| Cn1ncc(Cl)c1-c1nc(N2CCN(C(=O)N3N=CC[C@H]3c3cc(F)cc(F)c3)CC2)ncc1F [Compound 68, (S)-(4-(4-(4-chloro-1-methyl-1H-pyrazol-5-yl)-5-fluoropyrimidin-2-yl)piperazin-1-yl)(5-(3,5-difluorophenyl)-4,5-dihydro-1H-pyrazol-1-yl)methanone] | 0.1 to 100 | – |
| Cn1nccc1-c1nc(N2CCN(C(=O)N3N=CC[C@H]3c3cc(F)cc(C#N)c3)CC2)ncc1F [Compound 69, (S)-3-fluoro-5-(1-(4-(5-fluoro-4-(1-methyl-1H-pyrazol-5-yl)pyrimidin-2-yl)piperazine-1-carbonyl)-4,5-dihydro-1H-pyrazol-5-yl)benzonitrile] | 0.1 to 100 | – |
| Cc1nnn(C)c1-c1nc(N2CCN(C(=O)N3N=CC[C@H]3c3cc(F)cc(C#N)c3)CC2)ncc1F [Compound 70, (S)-3-(1-(4-(4-(1,4-dimethyl-1H-1,2,3-triazol-5-yl)-5-fluoropyrimidin-2-yl)piperazine-1-carbonyl)-4,5-dihydro-1H-pyrazol-5-yl)-5-fluorobenzonitrile] | 0.1 to 100 | – |
| Cc1nnn(C)c1-c1nc(N2CCN(C(=O)N3N=CC[C@H]3c3cc(F)cc(F)c3)CC2)ncc1F [Compound 71, (S)-(5-(3,5-difluorophenyl)-4,5-dihydro-1H-pyrazol-1-yl)(4-(4-(1,4-dimethyl-1H-1,2,3-triazol-5-yl)-5-fluoropyrimidin-2-yl)piperazin-1-yl)methanone] | 0.1 to 100 | – |
| Cn1nc(CO)nc1-c1nc(N2CCN(C(=O)N3N=CC[C@H]3c3cc(F)cc(C#N)c3)CC2)ncc1F [Compound 72, (S)-3-fluoro-5-(1-(4-(5-fluoro-4-(3-(hydroxymethyl)-1-methyl-1H-1,2,4-triazol-5-yl)pyrimidin-2-yl)piperazine-1-carbonyl)-4,5-dihydro-1H-pyrazol-5-yl)benzonitrile] | 0.1 to 100 | – |
| CCOC(=O)c1n[nH]c(C)c1-c1nc(N2CCN(C(=O)N3N=CC[C@H]3c3cc(F)cc(C#N)c3)CC2)ncc1F [Compound 73, ethyl (S)-4-(2-(4-(5-(3-cyano-5-fluorophenyl)-4,5-dihydro-1H-pyrazole-1-carbonyl)piperazin-1-yl)-5-fluoropyrimidin-4-yl)-5-methyl-1H-pyrazole-3-carboxylat] | – | 0.1 to 100 |
| Cc1[nH]nc(CO)c1-c1nc(N2CCN(C(=O)N3N=CC[C@H]3c3cc(F)cc(C#N)c3)CC2)ncc1F [Compound 74, (S)-3-fluoro-5-(1-(4-(5-fluoro-4-(3-(hydroxymethyl)-5-methyl-1H-pyrazol-4-yl)pyrimidin-2-yl)piperazine-1-carbonyl)-4,5-dihydro-1H-pyrazol-5-yl)benzonitrile] | 0.1 to 100 | – |
| N#Cc1cc(F)cc([C@@H]2CC=NN2C(=O)N2CCN(c3ncc(F)c(-c4ccn(CC(N)=O)n4)n3)CC2)c1 [Compound 76, (S)-2-(3-(2-(4-(5-(3-cyano-5-fluorophenyl)-4,5-dihydro-1H-pyrazole-1-carbonyl)piperazin-1-yl)-5-fluoropyrimidin-4-yl)-1H-pyrazol-1-yl)acetamide] | 0.1 to 100 | – |
| NC(=O)Cn1ccc(-c2nc(N3CCN(C(=O)N4N=CC[C@H]4c4ccccc4)CC3)ncc2F)n1 [Compound 77] | 0.1 to 100 | – |
| Cc1nn(CC(N)=O)nc1-c1nc(N2CCN(C(=O)N3N=CC[C@H]3c3cc(F)cc(C#N)c3)CC2)ncc1F [Compound 78, (S)-2-(4-(2-(4-(5-(3-cyano-5-fluorophenyl)-4,5-dihydro-1H-pyrazole-1-carbonyl)piperazin-1-yl)-5-fluoropyrimidin-4-yl)-5-methyl-2H-1,2,3-triazol-2-yl)acetamide] | 0.1 to 100 | – |
| Cc1c(-c2nc(N3CCN(C(=O)N4N=CC[C@H]4c4cc(F)cc(C#N)c4)CC3)ncc2F)nnn1CC(N)=O [Compound 79, (S)-2-(4-(2-(4-(5-(3-cyano-5-fluorophenyl)-4,5-dihydro-1H-pyrazole-1-carbonyl)piperazin-1-yl)-5-fluoropyrimidin-4-yl)-5-methyl-1H-1,2,3-triazol-1-yl)acetamide] | 0.1 to 100 | – |
| Cc1n[nH]nc1-c1nc(N2CCN(C(=O)N3N=CC[C@H]3c3cc(F)cc(C#N)c3)CC2)ncc1F [Compound 80, (S)-3-fluoro-5-(1-(4-(5-fluoro-4-(5-methyl-2H-1,2,3-triazol-4-yl)pyrimidin-2-yl)piperazine-1-carbonyl)-4,5-dihydro-1H-pyrazol-5-yl)benzonitrile] | 0.1 to 100 | – |
| Cc1nn(CC(N)=O)cc1-c1nc(N2CCN(C(=O)N3N=CC[C@H]3c3cc(F)cc(C#N)c3)CC2)ncc1F [Compound 82] | 0.1 to 100 | – |
| Cc1cc(-c2nc(N3CCN(C(=O)N4N=CC[C@H]4c4cc(F)cc(F)c4)CC3)ncc2F)n(C)n1 [Compound 83, (S)-(5-(3,5-difluorophenyl)-4,5-dihydro-1H-pyrazol-1-yl)(4-(4-(1,3-dimethyl-1H-pyrazol-5-yl)-5-fluoropyrimidin-2-yl)piperazin-1-yl)methanone] | 0.1 to 100 | – |
| Cc1cc(-c2nc(N3CCN(C(=O)N4N=CC[C@H]4c4cc(F)cc(C#N)c4)CC3)ncc2F)n(C)n1 [Compound 84, (S)-3-(1-(4-(4-(1,3-dimethyl-1H-pyrazol-5-yl)-5-fluoropyrimidin-2-yl)piperazine-1-carbonyl)-4,5-dihydro-1H-pyrazol-5-yl)-5-fluorobenzonitrile] | 0.1 to 100 | – |
| Cc1cc(-c2nc(N3CCN(C(=O)N4N=CC[C@H]4c4ccccc4)CC3)ncc2F)n(C)n1 [Compound 85, (S)-(4-(4-(1,3-dimethyl-1H-pyrazol-5-yl)-5-fluoropyrimidin-2-yl)piperazin-1-yl)(5-phenyl-4,5-dihydro-1H-pyrazol-1-yl)methanone] | 0.1 to 100 | – |
| Cc1cc(-c2nc(N3CCN(C(=O)N4N=CC[C@H]4c4cncc(F)c4)CC3)ncc2F)n(C)n1 [Compound 86, (S)-(4-(4-(1,3-dimethyl-1H-pyrazol-5-yl)-5-fluoropyrimidinyl)piperazin-1-yl)(5-(5-fluoropyridin-3-yl)-4,5-dihydro-1H-pyrazol-1-yl)methanone] | 0.1 to 100 | – |
| O=C(N1CCN(c2ncc(F)c(-c3ccc[nH]c3=O)n2)CC1)N1N=CC[C@H]1c1cc(F)cc(F)c1 [Compound 87, (S)-3-(2-(4-(5-(3,5-difluorophenyl)-4,5-dihydro-1H-pyrazole-1-carbonyl)piperazin-1-yl)-5-fluoropyrimidin-4-yl)pyridin-2(1H)-one] | 0.1 to 100 | – |
| Cn1cccc(-c2nc(N3CCN(C(=O)N4N=CC[C@H]4c4cc(F)cc(F)c4)CC3)ncc2F)c1=O [Compound 88, (S)-3-(2-(4-(5-(3,5-difluorophenyl)-4,5-dihydro-1H-pyrazole-1-carbonyl)piperazin-1-yl)-5-fluoropyrimidin-4-yl)-1-methylpyridin-2(1H)-one] | 0.1 to 100 | – |
| Cn1cc(-c2nc(N3CCN(C(=O)N4N=CC[C@H]4c4cc(F)cc(F)c4)CC3)ncc2F)ccc1=O [Compound 89, (S)-5-(2-(4-(5-(3,5-difluorophenyl)-4,5-dihydro-1H-pyrazole-1-carbonyl)piperazin-1-yl)-5-fluoropyrimidin-4-yl)-1-methylpyridin-2(1H)-one] | 0.1 to 100 | – |
| Cc1nc(C)n(-c2cc(N3CCN(C(=O)N4N=CC[C@H]4c4cc(F)cc(F)c4)CC3)ncn2)n1 [Compound 90, (S)-(5-(3,5-difluorophenyl)-4,5-dihydro-1H-pyrazol-1-yl)(4-(6-(3,5-dimethyl-1H-1,2,4-triazol-1-yl)pyrimidin-4-yl)piperazin-1-yl)methanone] | 0.1 to 100 | – |
